According to patent publication US9271978B2 (Zenith Epigenetics Corp., priority 2012, dated 2016):

Legend:
Set-up in all cases: key: Active: Compounds with an IC50 value less than 30 μM were deemed to be active.; Not Active: Compounds with an IC50 value less than 30 μM were deemed to be active
[1] = target: T1, second bromodomain of Brd2 (BRD2(2)) (Homo sapiens, UniProt P25440); assay: Inhibition of tetra-acetylated histone H4 binding to Brd2 bromodomain 2 (TR-FRET); settings: tetra-acetylated histone H4 peptide, active = IC50 <30 μM
T1 construct: made in house; host or cells: E. coli BL21 (DE3)
T1 sequence (P25440 344-453 limits assumed): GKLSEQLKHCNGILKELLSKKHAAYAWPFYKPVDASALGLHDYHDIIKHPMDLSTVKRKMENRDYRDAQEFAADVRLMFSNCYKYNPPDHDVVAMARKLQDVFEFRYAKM
Procedure: (§1) Proteins were cloned and overexpressed with a N-terminal 6×His tag, then purified by nickel affinity followed by size exclusion chromatography. Briefly, E. coli BL21 (DE3) cells were transformed with a recombinant expression vector encoding N-terminally Nickel affinity tagged bromodomains from Brd2, Brd3, Brd4. Cell cultures were incubated at 37° C. with shaking to the appropriate density and induced overnight with IPTG. The supernatant of lysed cells was loaded onto Ni-IDA column for purification. Eluted protein is pooled, concentrated and further purified by size exclusion chromatography. Fractions representing monomeric protein were pooled, concentrated, aliquoted, and frozen at −80° C. for use in subsequent experiments.
(§2) Binding of tetra-acetylated histone H4 and BET bromodomains was confirmed by a Time Resolved Fluorescence Resonance Energy Transfer (TR-FRET) method. N-terminally His-tagged bromodomains (200 nM) and biotinylated tetra-acetylated histone H4 peptide (25-50 nM, Millipore) were incubated in the presence of Europium Cryptate-labeled streptavidin (Cisbio Cat. #610SAKLB) and XL665-labeled monoclonal anti-His antibody (Cisbio Cat. #61HISXLB) in a white 96 well microtiter plate (Greiner). For inhibition assays, serially diluted test compound was added to these reactions in a 0.2% final concentration of DMSO. Final buffer concentrations were 30 mM HEPES pH 7.4, 30 mM NaCl, 0.3 mM CHAPS, 20 mM phosphate pH 7.0, 320 mM KF, 0.08% BSA). After a 2-h incubation at room temperature, the fluorescence by FRET was measured at 665 and 620 nm by a SynergyH4 plate reader (Biotek). Illustrative results with the first bromodomain of Brd4 and the second bromodomain of Brd2 are shown below. The binding inhibitory activity was shown by a decrease in 665 nm fluorescence relative to 620 nm. IC50 values were determined from a dose response curve.

hIL-6 mRNA = assay: Inhibition of hIL-6 mRNA transcription in U937 cells; assay type: cell-based, human; settings: LPS stimulation, active = IC50 <30 μM
Procedure: In this example, hIL-6 mRNA in tissue culture cells was quantitated to measure the transcriptional inhibition of hIL-6 when treated with a compound of the present disclosure.
A human leukemic monocyte lymphoma cell line (U937) was plated (3.2×10^4 cells per well) in a 96-well plate in […] RPMI-1640 containing 10% FBS and penicillin/streptomycin, and differentiated into macrophages for 3 days in 60 ng/mL PMA ([…]) at 37° C. in 5% CO2 prior to the addition of the compound of interest. The cells were pretreated for 1 h with the test compound prior to stimulation with 1 ug/mL lipopolysaccharide from Escherichia coli. The cells were incubated at 37° C. for 3 h before the cells were harvested. At time of harvest, the spent media was removed from the cells and the cells were rinsed in […] PBS. Cell lysis solution (70 μL) was added the cells in each well and incubated for 5-10 min at room temperature, to allow for complete cell lysis and detachment. mRNA was then prepared using the “mRNA Catcher PLUS plate” (Invitrogen), according to the protocol supplied. After the last wash, as much wash buffer as possible was aspirated without allowing the wells to dry. Elution buffer (E3, 70 μL) was then added to each well. mRNA was then eluted by incubating the mRNA Catcher PLUS plate with Elution Buffer for 5 min at 68° C. and then immediately placing the plate on ice.
The eluted mRNA isolated was then used in a one-step quantitative real-time PCR reaction, using components of the Ultra Sense Kit together with Applied Biosystems primer-probe mixes. Real-time PCR data was analyzed, normalizing the Ct values for hIL-6 to an internal control, prior to determining the fold induction of each unknown sample, relative to the control.

[2] = target: T2, Brd4 bromodomain 1 (BRD4(1)) (Homo sapiens, UniProt O60885); assay: Inhibition of tetra-acetylated histone H4 binding to Brd4 bromodomain 1 (TR-FRET); settings: tetra-acetylated histone H4 peptide, active = IC50 <30 μM
T2 construct: Illustrative results with the first bromodomain of Brd4; made in house; host or cells: E. coli BL21 (DE3)
Procedure: as §1, §2

FRET activity (IC50 <30 μM) BRD2(2) [1] | IL-6 activity (IC50 <30 μM) (hIL-6 mRNA) | FRET activity (IC50 <30 μM) BRD4(1) [2] | Structure (SMILES)
Active | Active | Active | Cc1noc(C)c1-c1ccc(=O)n(Cc2ccc(Cl)cc2F)c1 [Example 139, 1-(4-Chloro-2-fluorobenzyl)-5-(3,5-dimethylisoxazol-4-yl)pyridin-2(1H)-one]
Active | Active | Active | COc1ccc(Cn2cc(-c3c(C)noc3C)ccc2=O)cc1OC [Example 131, 1-(3,4-Dimethoxybenzyl)-5-(3,5-dimethylisoxazol-4-yl)pyridin-2(1H)-one]
Active | Active | Active | Cc1noc(C)c1-c1ccc(=O)n(C(C)c2ccccc2C(F)(F)F)c1 (stereo not shown) [Example 38, 5-(3,5-Dimethylisoxazol-4-yl)-1-(1-(2-(trifluoromethyl)phenyl)ethyl)pyridin-2(1H)-one]
– | Active | Active | Cc1cccc(Cn2cc(-c3c(C)noc3C)cc(N)c2=O)n1 [Example 244, 3-amino-5-(3,5-dimethylisoxazol-4-yl)-1-((6-methylpyridin-2-yl)methyl)pyridin-2(1H)-one]
– | Not Active | Active | Cc1noc(C)c1-c1cc(Nc2cccnn2)c(=O)n(Cc2ccccc2)c1 [Example 221, 1-benzyl-5-(3,5-dimethylisoxazol-4-yl)-3-(pyridazin-3-ylamino)pyridin-2(1H)-one]
Active | – | Active | Cc1noc(C)c1-c1ccc(=O)n(CC2CCC2)n1 [Example 88, 2-(Cyclobutylmethyl)-6-(3,5-dimethylisoxazol-4-yl)pyridazin-3(2H)-one]
Active | – | Active | Cc1n[nH]c(C)c1-c1ccc(=O)n(Cc2ccccc2)n1 [Example 86, 2-Benzyl-6-(3,5-dimethyl-1H-pyrazol-4-yl)pyridazin-3(2H)-one]
Active | – | Active | Cc1noc(C)c1-c1ccc(=O)n(C(C)(C)c2ccccc2)c1 [Example 106, 5-(3,5-Dimethylisoxazol-4-yl)-1-(2-phenylpropan-2-yl)pyridin-2(1H)-one]
Active | – | Not Active | O=c1ccc(-c2cncs2)cn1Cc1ccccc1 [Example 80, 1-Benzyl-5-(thiazol-5-yl)pyridin-2(1H)-one]
Active | – | Active | Cc1noc(C)c1-c1ccc(=O)n(Cc2cc(F)c(F)c(F)c2)n1 [Example 144, 6-(3,5-Dimethylisoxazol-4-yl)-2-(3,4,5-trifluorobenzyl)pyridazin-3(2H)-one]
Active | – | Active | Cc1noc(C)c1-c1ccc(=O)n(Cc2cccc(Cl)c2)n1 [Example 23, 2-(3-Chlorobenzyl)-6-(3,5-dimethylisoxazol-4-yl)pyridazin-3(2H)-one]
Active | – | Active | Cc1oncc1-c1ccc(=O)n(Cc2ccccc2)c1 [Example 57, 1-Benzyl-5-(5-methylisoxazol-4-yl)pyridin-2(1H)-one]
Active | – | Active | Cc1noc(C)c1-c1ccc(=O)n(Cc2ccccc2)c1Cl [Example 114, 1-Benzyl-6-chloro-5-(3,5-dimethylisoxazol-4-yl)pyridin-2(1H)-one]
Active | – | Active | Cc1noc(C)c1-c1cnc(=O)n(Cc2ccccc2)c1 [Example 8, 1-Benzyl-5-(3,5-dimethylisoxazol-4-yl)pyrimidin-2(1H)-one]
Active | – | Active | COc1cccc(Cn2nc(-c3c(C)noc3C)ccc2=O)c1 [Example 35, 6-(3,5-Dimethylisoxazol-4-yl)-2-(3-methoxybenzyl)pyridazin-3(2H)-one]
Active | – | Active | COc1ccc(-c2nn(Cc3ccccc3)c(=O)c3ccccc23)c(OC)c1OC [Example 177, 2-Benzyl-4-(2,3,4-trimethoxyphenyl)phthalazin-1(2H)-one]
Active | – | Active | Cc1noc(C)c1-c1ccc(=O)n(Cc2ccc3nccnc3c2)c1 [Example 18, 5-(3,5-Dimethylisoxazol-4-yl)-1-(quinoxalin-6-ylmethyl)pyridin-2(1H)-one]
Active | – | Active | Cc1noc(C)c1Nc1ccc(=O)n(Cc2ccccc2)n1 [Example 61]
Active | – | Active | Cc1noc(C)c1-c1ccc(=O)n(Cc2ccc3ccccc3c2)n1 [Example 77, 6-(3,5-Dimethylisoxazol-4-yl)-2-(naphthalen-2-ylmethyl)pyridazin-3(2H)-one]
Active | – | Active | Cc1noc(C)c1-c1ccc(=O)n(Cc2c(F)cc(F)cc2F)n1 [Example 92, 6-(3,5-Dimethylisoxazol-4-yl)-2-(2,4,6-trifluorobenzyl)pyridazin-3(2H)-one]
Active | – | Active | Cc1noc(C)c1-c1ccc(=O)n(CC2CCNCC2)c1 [Example 10, 5-(3,5-Dimethylisoxazol-4-yl)-1-(piperidin-4-ylmethyl)pyridin-2(1H)-one hydrochloric acid]
Active | – | Not Active | COc1ccc(Oc2ccc(=O)n(Cc3ccccc3)n2)cc1OC [Example 100, 2-Benzyl-6-(3,4-dimethoxyphenoxy)pyridazin-3(2H)-one]
Active | – | Active | Cc1noc(C)c1Cn1cc(-c2c(C)noc2C)ccc1=O [Example 11, 5-(3,5-Dimethylisoxazol-4-yl)-1-((3,5-dimethylisoxazol-4-yl)methyl)pyridin-2(1H)-one]
Active | – | Active | Cc1noc(C)c1-c1ccc(=O)n(Cc2ccccc2)c1C [Example 115, 1-Benzyl-5-(3,5-dimethylisoxazol-4-yl)-6-methylpyridin-2(1H)-one]
– | Active | Active | Cc1ccc(Cn2cc(-c3c(C)noc3C)cc(N)c2=O)cn1 [Example 258, 3-amino-5-(3,5-dimethylisoxazol-4-yl)-1-((6-methylpyridin-3-yl)methyl)pyridin-2(1H)-one]
Not Active | – | Active | Cc1noc(C)c1-c1ccc(=O)n(S(=O)(=O)c2ccc(Cl)cc2)c1 [Example 150, 1-((4-Chlorophenyl)sulfonyl)-5-(3,5-dimethylisoxazol-4-yl)pyridin-2(1H)-one]
